# Results taken from patent US12031150B2, “Methods, compositions and kits for increasing genome editing efficiency” (Vertex Pharmaceuticals Incorporated, priority 2016, dated 2024).
# Where “and” joins values, the source holds several entries; their conditions need not be identical. Identical values can stand only once. Entries after “also recorded” stand apart in the source; their conditions may differ.
# Columns and labels:
# [1] = system: HDR repair pathway in the HEK293-EGIP cell line; assay: Traffic light reporter (TLR) assay, HDR efficiency by FACS (GFP positive cells); format: cell-based, human; conditions: for FACS Analysis - Percent HDR enhancement (gRNA-Cas9 + donor), Mean / FACS Analysis - Percent HDR enhancement (gRNA-Cas9 + donor), single replicate: 2.5 uM compound, HEK293-EGIP; for FACS Analysis - Percent HDR enhancement (gRNA-Cas9 + donor), Mean: mean of three technical replicates; for FACS Analysis - Percent HDR enhancement (gRNA-Cas9 + donor), single replicate: technical replicates 1-3 of one experiment; for fold increase in the amount of CRISPR-genome edited cells (HDR enhancement): compared to transfection in the absence of compound, Table 1, FIG. 2C; for GFP positive cells after transfection of donor repair template and gRNA-Cas9 (qualitative): FIG. 2A FACS dot plots
# Excerpt: Traffic light reporter (TLR) assay: The HEK293-EGIP (Enhanced Green Fluorescent inhibited Protein) stable cell line was purchased from System Biosciences (SBI). The HEK293-EGIP cell line harbors a disrupted GPP coding sequence with a stop codon and a 53-bp genomic fragment from the AAVS1 locus. Cells were maintained in DMEM (Life Technologies, cat. no. 10313-039) with high glucose (Life Technologies, cat. no. 10313-039) supplemented with 10% heat-inactivated FBS (Fetal Bovine Serum, Expression Systems Inc.), Glutamax and Penicillin+Streptomycin and cultured at 37° C. and 5% CO2.
# Cell transfection and NHEJ inhibitor treatment: The HEK293-EGIP stable cells were transfected with the two-in-one gRNA/CRISPR-Cas9 dual plasmid vector, plasmid repair donor (both plasmids from System Biosciences). Transfection was carried out using the Amaxa nucleofector system (Lonza) following manufacturer's protocol. After 16 hours, cells were treated with Compound 1 and Scr7 (Excess Bioscience; no. M60082-2s) at various concentrations, including 1 μM, 2.5 μM, 5 μM and 10 μM of compound. The structure of Scr7 is shown as follows:
# Cell Sorting and Flow Cytometry: For flow cytometry analysis, HEK293 cells were trypsinized and resuspended in PBS/1% BSA FACS buffer and analyzed with a Fortessa flow cytometer (Becton Dickinson). A portion of cells were centrifuged and used for the isolation of genomic DNA.
# Assays were performed to ascertain HDR efficiency in HEK293-EGIP cells. To this end, a bicistronic construct was used that targets the human AAVS1 locus (FIG. 1A). The bicistronic vector system co-expresses human codon optimized Cas9 driven by the EF1 promoter as well as custom guide RNA (gRNA) consisting of a chimeric crRNA-tracrRNA transcript driven by the Hl promoter. The hspCas9 contains two nuclear localization signals (NLS) at the N-terminus and C-terminus to ensure efficient import of the hspCas9 protein into the nucleus. The hspCas9 open reading frame (ORF) is followed by a regulatory element called WPRE (Woodchuck virus post-transcriptional regulatory element) to boost gene expression and stabilize the mRNA transcript.
# The engineered human cell line, EGIP HEK293 was used to monitor HDR efficiency using the bicistronic construct described above and in FIG. 1A. The EGIP HEK293 reporter cell line was purchased from SBI. The HEK293-EGIP cell line harbors a disrupted GFP coding sequence with a stop codon and a 53-bp genomic fragment from the AAVS1 locus. The stable line was generated by lentiviral infection of 293T cells with an EF1alpha promoter to drive the expression of eGFP followed by puromycin selection. The eGFP sequence was modified to insert a 56 nucleotide insert (uppercase) from the human AAVS1 safe harbor site. This sequence contains a stop codon (TAA in red) after amino acid T109 in the eGFP translated sequence. The guide sequences targeted are in bold letters. Upon transfection with the guide and donor, the AAVS1 site within the broken eGFP was cut and the donor construct provided a homologous sequence to repair the eGFP, by removing the stop codon and the AAVS1 insert. Edited cells which had undergone HDR donor repair will generate GFP positive cells. Accordingly, co-transfecting Cas9, gRNA targeting AAVS1 and a AAVS1/EGFP rescue donor restored the sequence by HDR to give GFP+ cells.
# The population of GFP positive cells was directly proportional with the efficiency of the homology directed repair (FIG. 1B).
# For these assays, two-in-one Cas9-sgRNAs and eGFP donor template vectors were introduced into the HEK293 EGIP cells by electroporation using the Amaxa nucleofector (Lonza) to drive the synthesis of Cas9-sgRNAs and the eGFP donor template. Compounds were added 16 h post transfection followed by media change 48 hours later. Cells were then allowed to propagate for an additional 72 hours before FACS analysis. […]
# [2] = system: HDR efficiency in HEK-293 EGIP cells; assay: PCR genotyping and gel densitometry quantification of HDR efficiency; format: cell-based, human; conditions: HEK293-EGIP cells nucleofected with donor template and Cas9-sgRNA; for HDR Editing Efficiency, replicate 1 hdr 1 / HDR Editing Efficiency, replicate 2 hdr 2 / HDR Editing Efficiency, replicate 3 hdr 3 / HDR Editing Efficiency, replicate 4 hdr 4: PCR band densitometry; for HDR Editing Efficiency, Average: average of replicates 1-4
# Excerpt: Genomic DNA isolation, PCR Genotyping, and Gel Quantification: Specially designed PCR primer pairs provided another means to assess HDR-mediated genome editing to obtain functional eGFP positive cells. The genotyping PCR primer pair is shown below, corresponding to SEQ ID NOs: 6 and 7. A 219 bp PCR product corresponds to unmodified cells and a 163 bp nucleotide corresponds to modification through HDR. Intensity of these bands on a >2.5% gel allows for estimation of HDR by densitometry using a Bio-Imager. The technique allows for the relative ranking of improvement of HDR by inhibitors. Intensities measured for each lane were normalized by calculating the ratios of PCR bands corresponding to ‘insertions’ divided by ‘total’ (inserted and unmodified). The fold-change was calculated by comparing the ratio of insertions with compound over that without compound.
# Another series of experiments compared increase in HDR efficiency following contact with either Scr7 or Compound 1, a DNAPK inhibitor. For these experiments, HEK293-EGIP cells were nucleofected with donor template only or donor template and Cas9-sgRNA. To test the ability of Scr7 and Compound 1 to enhance HDR editing, cells that had been nucleofected with either donor template alone, or donor template and Cas9-sgRNA were administered either Scr7 or Compound 1.
# HDR recombination status was ascertained by traditional “end-point” PCR primer genotyping and quantitation based on agarose band intensities. The primers produced distinct amplicons: a 219 bp nucleotide band corresponded to unmodified cells and a 163 bp nucleotide product for HDR event. Intensity of these bands on a >2.5% gel allows for estimation of HDR by densitometry using a Bio-Imager. The technique allows for the relative ranking of conditions for improvement of HDR by inhibitors of NHEJ. The genotyping PCR primer pairs for these assays is shown below.
# [3] = system: HDR repair pathway in the HEK293-EGIP cell line; assay: Traffic light reporter (TLR) assay, HDR efficiency by FACS (GFP positive cells); format: cell-based, human; conditions: for increase in the amount of CRISPR-genome edited HEK-EGIP cells: 2.5 μM, 24 hours, in comparison to the gRNA-Cas9 and donor template condition only, FIG. 2A; for GFP positive cells: flow cytometry 10 days post transfection, 10 μM, FIG. 4
# [4] = system: Serpin A1 gene in Huh7 hepato cellular carcinoma cells; assay: SerpinA1 gene editing assay (KpnI site introduction, PCR and Kpn digest); format: cell-based; conditions: Huh7 cells nucleofected with gRNA, Cas9 protein, donor repair template; 2.5 pM Compound 1 for three days; vs DMSO; FIG. 5
# Method: Assays were performed to ascertain the ability of a DNAPK inhibitor to allow for the editing of a target gene. For these assays, the editing of the Serpin A1 gene from M to Z form was assessed. To this end, Huh7 hepato cellular carcinoma cells were nucleofected with gRNA and Cas9 protein, with or without a donor repair template in which a KpnI site was introduced. The nucleofected cells were then cultured in the presence of DMSO or 2.5 pM Compound 1 for three days, following which, the genomic DNA was amplified and assessed for the introduction of the Kpn site.
# The assay works as follows: when the SerpinA1 gene is edited, Kpn endonuclease is able to digest the gene fragment, resulting in the appearance of a digested band on a gel only when the SerpinA1 gene is edited. Conversely, when the SerpinA1 is not edited, the Kpn endonuclease is not able cut the gene fragment, and thus there will not be an appearance of a new, digested band on a gel.
SMILES,"FACS Analysis - Percent HDR enhancement (gRNA-Cas9 + donor), Mean [1]","FACS Analysis - Percent HDR enhancement (gRNA-Cas9 + donor), single replicate [1]",fold increase in the amount of CRISPR-genome edited cells (HDR enhancement) ([1]; 2.5 μM),GFP positive cells after transfection of donor repair template and gRNA-Cas9 (qualitative) [1],"HDR Editing Efficiency, replicate 1 hdr 1 [2]","HDR Editing Efficiency, replicate 2 hdr 2 [2]","HDR Editing Efficiency, replicate 3 hdr 3 [2]","HDR Editing Efficiency, replicate 4 hdr 4 [2]","HDR Editing Efficiency, Average [2]",increase in the amount of CRISPR-genome edited HEK-EGIP cells [3],GFP positive cells [3],"fold better HDR enhancement compared to transfection with Scr7 ([1]; 2.5 μM, two separate experiments in triplicates, FIGS. 2B and 2C)","gene editing of the SerpinA1 gene (introduction of Kpn site, digested band on gel) [4]","fold increase in HDR enhancement compared to SCR7 ([1]; 10 μM Compound 3, experiments in triplicates, compared to transfection in the presence of SCR7)"
"Oc1nc(S)nc(/N=C/c2ccccc2)c1/N=C/c1ccccc1 [Scr7, reference compound]",0.32%,0.16% and 0.62% and 0.19%,~2.3 fold,increase in GFP positive cells,1.3 and 14.1 and 5.8,18.2 and 22.7 and 21.8,16.6 and 20.2 and 21.3,16.4 and 28.1 and 23,13.125 and 21.275 and 17.975,approximately 30%,about 0.5%,–,–,–
"CNC(=O)c1ccnc2c([C@H](C)CNc3cc(-c4cnc(C)nc4)ncn3)cccc12 [Compound 1, (5)-N-methyl-8-(1-((2′-methyl-[4,5′-bipyrimidin]-6-yl)amino)propan-2-yl)quinoline-4-carboxamide]",0.64%,0.44% and 6.82% and 0.65%,~4.5 fold,increase in GFP positive cells,8.4 and 4.3 and 4.9,29 and 27.4 (2×),27.5 and 58.3 and 29.8,27.6 and 40 and 25.1,23.125 and 32.5 and 21.8,approximately 83%,–,2 fold,allowed for gene editing in comparison to the DMSO condition; also recorded: resulted in gene editing of the SerpinA1 gene,–
CNC(=O)c1ccnc2c([C@H](C)CNc3cc(-c4ccc(C)nc4)ncn3)cccc12 [Compound 3],–,–,–,–,–,–,–,–,–,–,4%,–,–,about 8 fold
